Results on two molecules are retold here after patent publication US20160067255A1, “METHODS OF TREATING OR PREVENTING HIV IN PATIENTS USING A COMBINATION OF TENOFOVIR ALAFENAMIDE AND DOLUTEGRAVIR” (priority 2014, published 2016).

The nature of the data set: in vivo. Particulars: dog; for half-life: T1/2 (estimated terminal elimination half-life). The protocol:
TAF was dosed at 5 mg/kg (as free base) orally in solution to fasted male beagle dogs (N=6 animals, mean weight 10 kg). On Day 1, TAF was administered alone. On days 2, 3, 4 and 5, 3 mg/kg of Dolutegravir (DTG) was administered alone (as free acid). Both compounds were administered on Day 6. The plasma pharmacokinetic profiles of TAF and its nucleotide metabolite tenofovir (TFV) were determined by LC/MS in samples taken on Day 1 and Day 6 of dosing.
The oral dosing formulation for TAF was 0.1% Hydroxypropylmethylcellulose K100LV, 0.1% Polysorbate 20, 99.8% deionized water. For dolutegravir, the oral dosing formulation was 0.5% Hydroxypropylmethylcellulose LV 100 and 0.1% Tween 20 in deionized water.
The animals were fasted overnight prior to each dose administration and up to 4 hr after dosing. The blood samples were collected on days 1 and 6 predose and at the following time points following dosing: 0.25, 0.5, 1, 2, 4, 6, 8, 12 and 24 hour. The blood samples were collected into Vacutainer™ tubes containing Sodium Fluoride/Potassium Oxalate (BD Biosciences). The blood samples were centrifuged at 4° C. to separate plasma. Plasma samples were frozen and stored in −70° C. freezers.
Plasma was prepared by protein precipitation by adding acetonitrile to a final concentration of 70% in the presence of internal standard. Following filtration to remove precipitated protein, samples were evaporated, reconstituted with mobile phase A (0.2% formate in water) and analyzed using injections of 5 μl for analysis.

[1] abbreviates: male, beagle, in vivo, po, 5 mg/kg.
[2] abbreviates: Day 6 (TAF + DTG) versus Day 1 (TAF alone).
Where [3] appears, read: male, beagle, in vivo, po, 5 mg/kg, TAF in plasma, Day 1, TAF 5 mg/kg oral alone, fasted male beagle dogs, mean n=6.
[4] abbreviates: male, beagle, in vivo, po, 5 mg/kg, TAF in plasma, Day 6, TAF 5 mg/kg oral co-administered with DTG 3 mg/kg after 4 daily doses of DTG, male beagle dogs, mean n=6.

As to `C[C@H](Cn1cnc2c(N)ncnc21)OCP(=O)(O)O` [TFV, Tenofovir], the “TFV levels in Day 1 pre-dose plasma samples” value (male, beagle, in vivo) is under 10 nM. Also, under setting [1], the area under the curve AUC(0-t) turned out to be 1.6 µM·h, the highest concentration (Cmax) was 253 nM, the half-life was 1500 min and the Tmax is 75 min. Where the note is “male, beagle, in vivo, po, 5 mg/kg, AUC0-inf”, this molecule returned an AUC(0-inf) of 2.92 µM·h.

Take `CC(C)OC(=O)[C@H](C)N[P@](=O)(CO[C@H](C)Cn1cnc2c(N)ncnc21)Oc1ccccc1` [TAF, 9-[(R)-2-[[(S)-[[(S)-1-(isopropoxycarbonyl)ethyl]amino]phenoxyphosphinyl]-methoxy]propyl]adenine]: under setting [2], the “increase of maximal concentrations (Cmax) of TAF upon coadministration with DTG” value is “approximately 2 fold” and the “increase of oral exposure of TAF upon coadministration with DTG” value is given as “approximately 2 fold”. Moreover, where the note is “male, beagle, in vivo, po, 5 mg/kg, AUC0-24hr, TAF in plasma, Day 1, TAF 5 mg/kg oral alone, fasted male beagle dogs, mean n=6”, the AUC(0-t) came to 0.174 µM·h. Further, the AUC(0-t) (male, beagle, in vivo, po, 5 mg/kg, AUC0-24hr, TAF in plasma, Day 6, TAF 5 mg/kg oral co-administered with DTG 3 mg/kg after 4 daily doses of DTG, male beagle dogs, mean n=6) was determined as 0.345 µM·h. Moreover, under setting [3], the maximum concentration (Cmax) worked out at 412 nM, the half-life was 11.4 min and the Tmax is 17.4 min. Further, under setting [4], the Cmax was 818 nM and the time of peak concentration (Tmax) was 15 min.

By AUC(0-t) is commonly meant exposure summed from dosing to a finite time, without extrapolation to infinity. In general, AUC(0-inf) refers to the area under the concentration-time curve extrapolated to infinity. What is called Cmax is the peak of the concentration-time curve. What is called half-life is how long it takes for the measured level to halve. As usually defined, the Tmax is the time at which the peak concentration occurs.
